# In PMC10966990, “Rational design of a cyclohexanone dehydrogenase for enhanced α,β-desaturation and substrate specificity” (Chemical Science, 2024):
# B1: cyclohexanone dehydrogenase (CDH) (Alicycliphilus denitrificans K601) (protein)
# chain: MMTTKPNAETVASRRGFLRATTVAAAASSSLGVLTMTDAQAASASFSAEYDIVVVGSGCAGLTSALFSRWHGNSVVVLEKAAALGGTTFKSAFWYWVPNNVPMRAAGIADPKPDFLKYVARVTRPQFYDPEHPTLGLTQWEYDMCEAIYDSASPAAELLAQKGALPYRHVPFATDYFSELPEDKAKSGRVLTPKDGSPSMANGGQVAIRTLSTAARRDGIAFKTGHRVQRVILNSKGEAIGIEALKDDNSVVRIRARKAVIFGSGGFTHDPELRSNFLNVPVYGGCAAFTNEGDLVRITSSLGVQLRNMNHAWLCPVTFEKAIGRDGSMSGMFSVAGDSMIFVDKRGKRVVNEKLNYNELCQKLFEWDGAKVEYPNLVLISIWDQRSQDHSASNDYGSAIVPPGADDRHVIKSDTLDGLSQQISLRLKKYAGQIGHMELSSDFNANLRESILRFNGFASTGKDEDFHRGERASDVLFNGSTKKEPDQKNPTMWPISSVGPYYAALVGGGTLDTKGGPKTNTHGQILDIHDKPIRGLYGVGNCVASASSGAYWAGGATLGPMIAFAYRAANAAHGEPKRT
# notes: full gene in pET28a, N-terminal His6 tag, E. coli BL21(DE3); dimer
# Experiments:
# [1] = target: T1, cyclohexanone dehydrogenase (CDH) (Alicycliphilus denitrificans, UniProt F4G7N3, Y176F, form not given); experiment: X-ray crystal structure, […] A; assay type: binding; conditions: crystals grown with 10 mM cyclohexanone; product modelled in active site next to FAD, further molecules elsewhere
# T1 construct: gene Alide2_4318; full gene in pET28a, N-terminal His6 tag, E. coli BL21(DE3); dimer
# T1 sequence (F4G7N3 entry or part of it Y176F, form open): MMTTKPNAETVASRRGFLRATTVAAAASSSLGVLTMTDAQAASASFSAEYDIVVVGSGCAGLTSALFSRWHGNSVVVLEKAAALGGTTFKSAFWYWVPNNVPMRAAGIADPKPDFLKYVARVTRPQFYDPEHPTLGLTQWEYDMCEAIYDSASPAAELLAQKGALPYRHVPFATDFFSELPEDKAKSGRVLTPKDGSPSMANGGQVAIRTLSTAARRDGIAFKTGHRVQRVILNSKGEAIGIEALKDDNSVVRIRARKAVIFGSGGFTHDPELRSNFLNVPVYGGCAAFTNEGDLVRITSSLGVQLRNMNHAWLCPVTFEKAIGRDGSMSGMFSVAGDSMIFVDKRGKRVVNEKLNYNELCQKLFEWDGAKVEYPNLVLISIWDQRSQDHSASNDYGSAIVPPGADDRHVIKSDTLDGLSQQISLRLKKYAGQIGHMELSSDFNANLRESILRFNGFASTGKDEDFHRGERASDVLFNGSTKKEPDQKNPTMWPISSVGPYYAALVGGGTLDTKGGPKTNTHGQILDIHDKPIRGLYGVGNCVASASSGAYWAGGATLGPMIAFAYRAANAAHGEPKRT
# [2] = target: T2, cyclohexanone dehydrogenase (CDH) (Alicycliphilus denitrificans, UniProt F4G7N3); experiment: X-ray crystal structure, […] A; assay type: binding; conditions: covalent; C8M of FAD 1.84 A from S-gamma of Cys305
# T2 construct: gene Alide2_4318; full gene in pET28a, N-terminal His6 tag, E. coli BL21(DE3); dimer
# [3] = target: T2, cyclohexanone dehydrogenase (CDH); experiment: DCPIP colour change assay; assay type: biochemical; conditions: 0.25 uM enzyme, 2 mM substrate, 75 uM DCPIP, 20 mM Tris-HCl pH 7.8
# Target sequence in this assay (F4G7N3 entry or part of it W94A, form open): as the sequence (F4G7N3 entry or part of it Y176F, form open) above, with W94A, F176Y counted along it
# purified protein = substrate: CC1(C)CCC(=O)CC1; experiment: purified protein; conditions: pH 7.8
# [4] = substrate: O=C1CCCCC1; experiment: DCPIP reduction assay, Michaelis-Menten; assay type: biochemical, Alicycliphilus denitrificans; conditions: 76 nM enzyme, 60 uM DCPIP, 20 mM Tris-HCl pH 7.8
# [5] = substrate: CC1CCCC(=O)C1; experiment: DCPIP reduction assay, Michaelis-Menten; assay type: biochemical, Alicycliphilus denitrificans; conditions: 76 nM enzyme, 60 uM DCPIP, 20 mM Tris-HCl pH 7.8, low aqueous solubility of substrate, caution stated
molecule,measurement,setting,value
"O=C1C=CCCC1 [compound 10, 2-cyclohexen-1-one]","X-ray crystal structure, 1.33 A",[1],2-cyclohexen-1-one was subsequently modelled to produce the Y195F complex structure
Cc1cc2nc3c(=O)[nH]c(=O)nc-3n(C[C@H](O)[C@H](O)[C@H](O)COP(=O)(O)OP(=O)(O)OC[C@H]3O[C@@H](n4cnc5c(N)ncnc54)[C@H](O)[C@@H]3O)c2cc1C [flavin adenine dinucleotide],"X-ray crystal structure, 1.86 A",[2],The FAD cofactor was found to occupy a deep positively charged channel
"O=C1CCc2ccccc2O1 [compound 5, dihydrocoumarin]",DCPIP colour change assay,[3],"the W113A variant, but not WT CDH, with dihydrocoumarin"
"CC1CCCC(=O)C1 (stereo not shown) [compound 2, 3-methylcyclohexanone]",DCPIP colour change assay,[3],The W113A variant showed highest activity on 3-methylcyclohexanone
B1,Km,purified protein,25.62 ± 7.68 mM
same,Km,[4],0.37 ± 0.04 mM
same,Km,[5],9.31 ± 1.99 mM
